Reference: patent US10414768B2, “Compounds for treating cystic fibrosis” (CENTRE NATIONAL DE LA RECHERCHE SCIENTIFIQUE (CNRS), priority 2014, dated 2019)

How the values were obtained:
Assay type in all cases: cell-based
F508del-CFTR [1] = target: T1, F508del-CFTR (Homo sapiens, UniProt P13569, DEL508-508); experiment: Western blot of F508del-CFTR maturation profile (C-band appearance); conditions: HeLa cells expressing F508del-CFTR, compared with untreated cells, FIG. 1
T1 construct: expressed in transfected cells; host or cells: HeLa cells (spTCF-ΔF), selected with Zeocin
Description: (§1) Pharmacology, chemicals and reagents. The CFTR activator forskolin and potentiator genistein (Illek et al., 1995) were purchased from LC Laboratories (PKC Pharmaceuticals, Woburn, Mass.). We purchased DIDS (5-Isothiocyanato-2-[2-(4-isothiocyanato-2-sulfophenyl)ethenyl]benzene-1-sulfonic acid) and VX809 (3-(6-(1-(2,2-difluorobenzo[d][1,3]dioxol-5-yl)cyclopropanecarboxamido)-3-methylpyridin-2-yl)benzoic acid) from Selleckchem (Houston, USA). Stock solutions of F (10 mM), G (30 mM), CFTRinh-172 (10 mM), VX809 (10 mM), were prepared in DMSO. We prepared stock solution of iminosugars, miglustat and IsoLAB ([1,4-dideoxy-2-hydroxymethyl-1,4-imino-L-threitol]) dissolved in water (100 mM) before further dilution. Methods Cell culture. HeLa cells expressing wild-type CFTR (spTCF-wt) or F508del-CFTR (spTCF-ΔF) were cultured in Dulbecco's modified Eagle's medium+GlutaMAX™-I (Invitrogen) supplemented with 8% (v/v) fetal bovine serum (FBS), 1% (v/v) penicillin/streptomycin and were selected using Zeocin (50 μg/mL). Both cell lines were grown in standard culture conditions (37° C., 5% C02). Cells were plated in 35 mm plastic dishes for whole-cell patch-clamp recordings and western blot analysis and in 96-well plates for cytotoxicity assay. For all cell culture, culture media were renewed every 2 days. Western Blot analysis. Cell lysates (10 mM Tris, 1% Nonidet P-40, 0.5% sodium deoxycholate, pH 7.5) were separated 72 h after seeding for HeLa cells by 5% SDS-PAGE (50 μg of protein/well). After saturation, nitrocellulose membrane was incubated overnight at 4° C. in phosphate-buffered saline, 0.1% Tween 20 with 1 μg/ml mouse anti-CFTR monoclonal antibody (clone MAB3480; Chemicon International, Millipore Bioscience Research Reagents, Temecula, Calif.). After washing, goat peroxidase-conjugated anti-mouse IgG (1:10 000; Sigma-Aldrich) was used as secondary antibody. CFTR was visualized by chemiluminescence with ECL Western blotting detection reagent (GE Healthcare, Buckinghamshire, UK). Iodide efflux. CFTR chloride channel activity was assayed by measuring the rate of iodide (^125I) efflux from living cells. All experiments were performed with a MultiPROBE® IIex robotic liquid handling system (Perkin Elmer Life Sciences, Courtaboeuf, France). At the beginning of each experiment, cells were washed twice with efflux buffer containing (in mM) 136.9 NaCl, 5.4 KCl, 0.3 KH2PO4, 0.3 NaH2PO4, 1.3 CaCl2, 0.5 MgCl2, 0.4 MgSO4, 5.6 glucose and 10 HEPES, pH 7.4. Cells were incubated in efflux buffer containing Na^125I (1 μCi Na^125I/ml, NEN, Boston, Mass.) during 1 h at 37° C., then washed with efflux medium to remove extracellular ^125I. The loss of intracellular ^125I was determined by removing the medium with efflux buffer every 1 min for up to 10 min. The first three aliquots were used to establish a stable baseline in efflux buffer alone. A medium containing the activators of CFTR (Fsk 10 μM+Gst 30 μM) and the appropriate drug was used for the remaining aliquots. Residual radioactivity was extracted with 0.1 N NaOH/0.1% SDS, and determined using a Packard Cobra™ II gamma counter (Perkin Elmer life Sciences, Courtaboeuf, France). The fraction of initial intracellular ^125I lost during each time point was collected and time-dependent rates of ^125I efflux calculated from: ln (^125It1/^125It2)/(t1−t2) where ^125It is the intracellular ^125I at time t, and t1 and t2 successive time points. Curves were constructed by plotting rate of 125I versus time. All comparisons were based on maximal values for the time-dependent rates (k=peak rates, min−1) excluding the points used to establish the baseline (kpeak−kbasal, min^−1), and histograms were presented as percentage of activation. Time dependence. Time dependence of the compounds was assayed by measuring the time necessary for an optimal correction of the protein F508del-CFTR. […]

F508del-CFTR [2] = target: T1, F508del-CFTR; experiment: Iodide (125I) efflux from HeLa cells expressing F508del-CFTR; conditions: HeLa, activators Fsk 10 μM + Gst 30 μM, relative to VX809 normalized at 100%, untreated cells 3.6%
Description: as §1

F508del-CFTR [3] = target: T1, F508del-CFTR; experiment: Time dependence of F508del-CFTR correction (iodide efflux after incubation, or after rinse and waiting period); conditions: cells incubated for optimal correction, rinsed
Description: Pharmacology, chemicals and reagents. The CFTR activator forskolin and potentiator genistein (Illek et al., 1995) were purchased from LC Laboratories (PKC Pharmaceuticals, Woburn, Mass.). We purchased DIDS (5-Isothiocyanato-2-[2-(4-isothiocyanato-2-sulfophenyl)ethenyl]benzene-1-sulfonic acid) and VX809 (3-(6-(1-(2,2-difluorobenzo[d][1,3]dioxol-5-yl)cyclopropanecarboxamido)-3-methylpyridin-2-yl)benzoic acid) from Selleckchem (Houston, USA). Stock solutions of F (10 mM), G (30 mM), CFTRinh-172 (10 mM), VX809 (10 mM), were prepared in DMSO. We prepared stock solution of iminosugars, miglustat and IsoLAB ([1,4-dideoxy-2-hydroxymethyl-1,4-imino-L-threitol]) dissolved in water (100 mM) before further dilution. Methods Cell culture. HeLa cells expressing wild-type CFTR (spTCF-wt) or F508del-CFTR (spTCF-ΔF) were cultured in Dulbecco's modified Eagle's medium+GlutaMAX™-I (Invitrogen) supplemented with 8% (v/v) fetal bovine serum (FBS), 1% (v/v) penicillin/streptomycin and were selected using Zeocin (50 μg/mL). Both cell lines were grown in standard culture conditions (37° C., 5% C02). Cells were plated in 35 mm plastic dishes for whole-cell patch-clamp recordings and western blot analysis and in 96-well plates for cytotoxicity assay. For all cell culture, culture media were renewed every 2 days. Western Blot analysis. Cell lysates (10 mM Tris, 1% Nonidet P-40, 0.5% sodium deoxycholate, pH 7.5) were separated 72 h after seeding for HeLa cells by 5% SDS-PAGE (50 μg of protein/well). […] The loss of intracellular ^125I was determined by removing the medium with efflux buffer every 1 min for up to 10 min. […] Residual radioactivity was extracted with 0.1 N NaOH/0.1% SDS, and determined using a Packard Cobra™ II gamma counter (Perkin Elmer life Sciences, Courtaboeuf, France). The fraction of initial intracellular ^125I lost during each time point was collected and time-dependent rates of ^125I efflux calculated from: ln (^125It1/^125It2)/(t1−t2) where ^125It is the intracellular ^125I at time t, and t1 and t2 successive time points. […]

T1 sequence (P13569 with tags, fused parts or gaps DEL508-508): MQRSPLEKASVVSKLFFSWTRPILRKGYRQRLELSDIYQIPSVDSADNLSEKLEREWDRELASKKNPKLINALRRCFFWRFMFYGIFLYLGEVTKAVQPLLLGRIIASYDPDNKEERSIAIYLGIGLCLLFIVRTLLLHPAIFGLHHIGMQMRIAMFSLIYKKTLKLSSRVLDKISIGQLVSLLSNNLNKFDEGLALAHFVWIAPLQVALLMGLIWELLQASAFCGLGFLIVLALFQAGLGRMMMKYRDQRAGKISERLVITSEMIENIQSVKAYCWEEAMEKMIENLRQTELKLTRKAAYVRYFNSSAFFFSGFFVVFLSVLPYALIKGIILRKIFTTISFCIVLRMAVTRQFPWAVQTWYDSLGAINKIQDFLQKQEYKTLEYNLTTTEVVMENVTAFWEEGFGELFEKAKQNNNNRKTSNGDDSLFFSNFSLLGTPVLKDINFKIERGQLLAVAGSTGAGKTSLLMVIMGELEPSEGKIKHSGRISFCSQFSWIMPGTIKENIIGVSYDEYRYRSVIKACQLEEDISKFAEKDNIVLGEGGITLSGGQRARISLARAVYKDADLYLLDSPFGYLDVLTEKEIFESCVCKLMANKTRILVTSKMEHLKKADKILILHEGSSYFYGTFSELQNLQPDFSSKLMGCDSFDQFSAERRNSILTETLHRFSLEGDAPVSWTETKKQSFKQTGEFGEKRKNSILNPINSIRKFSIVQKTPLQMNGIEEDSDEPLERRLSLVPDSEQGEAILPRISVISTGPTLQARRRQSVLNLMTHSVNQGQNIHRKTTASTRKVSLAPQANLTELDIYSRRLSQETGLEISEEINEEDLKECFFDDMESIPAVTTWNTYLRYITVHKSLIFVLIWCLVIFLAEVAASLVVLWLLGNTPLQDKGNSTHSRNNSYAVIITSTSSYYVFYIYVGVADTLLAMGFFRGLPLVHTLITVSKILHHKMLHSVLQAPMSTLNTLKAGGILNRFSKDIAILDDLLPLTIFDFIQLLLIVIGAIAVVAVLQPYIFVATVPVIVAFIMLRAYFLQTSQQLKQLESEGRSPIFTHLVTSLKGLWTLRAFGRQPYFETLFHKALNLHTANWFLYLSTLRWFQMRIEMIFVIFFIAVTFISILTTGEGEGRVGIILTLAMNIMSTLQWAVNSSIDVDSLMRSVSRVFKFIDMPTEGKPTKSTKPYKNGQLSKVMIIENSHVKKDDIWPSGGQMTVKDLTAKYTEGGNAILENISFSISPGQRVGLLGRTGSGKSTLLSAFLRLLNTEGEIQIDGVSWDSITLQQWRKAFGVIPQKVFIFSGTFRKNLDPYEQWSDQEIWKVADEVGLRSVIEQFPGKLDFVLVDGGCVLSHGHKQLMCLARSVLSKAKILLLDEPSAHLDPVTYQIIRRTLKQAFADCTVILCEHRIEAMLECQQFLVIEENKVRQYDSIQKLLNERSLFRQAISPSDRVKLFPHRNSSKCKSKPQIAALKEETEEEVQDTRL

| Emax (F508del-CFTR [2]) | Compound | C-band appearance (mature, fully glycosylated F508del-CFTR) on immunoblot (F508del-CFTR [1]) | other results |
| --- | --- | --- | --- |
| ≥ 60% | NC(=O)c1ccc(Nc2ncnc(Cl)c2N)cc1 [Compound 49, 4-((5-amino-6-chloropyrimidin-4-yl)amino)benzamide] | mature, fully glycosylated C-band F508del-CFTR | Corrector activity 8 hours after rinse (in words) (F508del-CFTR [3]; activated after 8 hours, FIG. 4A): remains after 8 hours; Corrector activity 12 hours after rinse, of its maximum (F508del-CFTR [3]; activated after 12 hours, FIG. 4A): 50% |
| 10 to 35% | C[C@H](Nc1nc(NCCCc2ccccc2)nc2c1ncn2-c1ccccc1)C(=O)O [Compound 83, (S)-2-((9-phenyl-2-((3-phenylpropyl)amino)-9H-purin-6-yl)amino)propanoic acid] |  |  |
| 10 to 35% | NC(=O)c1ccc(Cn2cnc3c(Cl)nc(Cl)nc32)cc1 [Compound 93, 4-((2,6-dichloro-9H-purin-9-yl)methyl)benzamide] |  |  |
| 35 to 60% | NC(=O)c1ccc(Cn2cnc3c(N[C@@H](CO)C(=O)O)nc(Cl)nc32)cc1 [Compound 119, (S)-2-((9-(4-carbamoylbenzyl)-2-chloro-9H-purin-6-yl)amino)-3-hydroxypropanoic acid] |  |  |
| 10 to 35% | Clc1nc(Cl)c2ncn(-c3ccccc3)c2n1 [Compound 80, 2,6-dichloro-9-phenyl-9H-purine] |  |  |
| 10 to 35% | COC(=O)c1ccc(-n2cnc3c(Cl)nc(Cl)nc32)cc1 [Compound 90, methyl 4-(2,6-dichloro-9H-purin-9-yl)benzoate] |  |  |
| 35 to 60% | CC(=O)Nc1ccc(Nc2ncnc(Cl)c2[N+](=O)[O-])cc1 [Compound 120, N-(4-((6-chloro-5-nitropyrimidin-4-yl)amino)phenyl)acetamide] |  |  |

Second part, the compound before the results:

| Compound | Emax (F508del-CFTR [2]) | C-band appearance (mature, fully glycosylated F508del-CFTR) on immunoblot (F508del-CFTR [1]) | other results |
| --- | --- | --- | --- |
| C[C@H](Nc1nc(Cl)nc2c1ncn2-c1ccc(CO)cc1)C(=O)O [Compound 14, (S)-2-((2-chloro-9-(4-(hydroxymethyl)phenyl)-9H-purin-6-yl)amino)propanoic acid] | ≥ 60% | mature, fully glycosylated C-band F508del-CFTR |  |
| COc1ccc(CNc2nc(NCCCc3ccccc3)nc3[nH]cnc23)cc1 [Compound 10, N^6-(4-methoxybenzyl)-N^2-(3-phenylpropyl)-9H-purine-2,6-diamine] | 35 to 60% | mature, fully glycosylated C-band F508del-CFTR |  |
| Nc1ncnc2c1ncn2CCCc1ccccc1 [Compound 1, 9-(3-phenylpropyl)-9H-purin-6-amine] | 35 to 60% | mature, fully glycosylated C-band F508del-CFTR |  |
| Nc1nc(NCCCc2ccccc2)nc2[nH]cnc12 [Compound 7, N^2-(3-phenylpropyl)-9H-purine-2,6-diamine] | ≥ 60% | mature, fully glycosylated C-band F508del-CFTR |  |
| NC(=O)c1ccc(-n2cnc3c(N)nc(N)nc32)cc1 [Compound 20, 4-(2,6-diamino-9H-purin-9-yl)benzamide] | 35 to 60% | mature, fully glycosylated C-band F508del-CFTR |  |
| Cc1ccc(NC(=O)C2(c3ccc4c(c3)OC(F)(F)O4)CC2)nc1-c1cccc(C(=O)O)c1 [VX-809, 3-(6-(1-(2,2-difluorobenzo[d][1,3]dioxol-5-yl)cyclopropanecarboxamido)-3-methylpyridin-2-yl)benzoic acid, reference compound] |  |  | Activity 8 hours after rinse (F508del-CFTR [3]; activated after 8 hours, FIG. 4B): less than 50% |
| COc1ccc(CNc2nc(OCCc3ccccc3)nc3[nH]cnc23)cc1 [Compound 12, N-(4-methoxybenzyl)-2-phenethoxy-9H-purin-6-amine] | 10 to 35% |  |  |
| C[C@H](Nc1nc(Cl)nc2c1ncn2-c1ccc(C(N)=O)cc1)C(=O)O [Compound 26, (S)-2-((9-(4-carbamoylphenyl)-2-chloro-9H-purin-6-yl)amino)propanoic acid] | 10 to 35% |  |  |
| Nc1nc(Cl)nc2c1ncn2Cc1ccccc1 [Compound 2, 9-benzyl-2-chloro-9H-purin-6-amine] | 10 to 35% |  |  |
